ChEMBL document CHEMBL5291721, “A preclinical secondary pharmacology resource illuminates target-adverse drug reaction associations of marketed drugs” (Nat Commun, 2023)

What was measured:
[1] = target: T1, Equilibrative nucleoside transporter 1 (Homo sapiens, UniProt Q99808)
T1 sequence (Q99808 whole entry): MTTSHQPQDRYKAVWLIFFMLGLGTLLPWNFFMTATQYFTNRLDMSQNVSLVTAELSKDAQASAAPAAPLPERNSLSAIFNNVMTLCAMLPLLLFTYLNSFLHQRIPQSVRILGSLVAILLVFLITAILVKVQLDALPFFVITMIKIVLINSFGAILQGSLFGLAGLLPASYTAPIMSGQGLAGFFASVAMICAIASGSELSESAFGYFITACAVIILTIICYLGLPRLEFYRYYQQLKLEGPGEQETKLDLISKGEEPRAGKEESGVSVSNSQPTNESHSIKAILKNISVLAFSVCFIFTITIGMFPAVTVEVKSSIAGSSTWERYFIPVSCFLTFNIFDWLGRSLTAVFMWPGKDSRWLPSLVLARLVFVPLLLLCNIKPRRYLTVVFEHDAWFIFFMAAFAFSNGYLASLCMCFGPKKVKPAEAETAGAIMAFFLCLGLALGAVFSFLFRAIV

[2] = target: Gamma-aminobutyric acid receptor subunit alpha-1 (Rattus norvegicus, UniProt P62813)
[3] = target: T2, 5-hydroxytryptamine receptor 2B (Homo sapiens, UniProt P41595); type: functional, cell-based
[4] = target: T3, Alpha-2A adrenergic receptor (Homo sapiens, UniProt P08913); type: functional, cell-based
T3 sequence (P08913 whole entry): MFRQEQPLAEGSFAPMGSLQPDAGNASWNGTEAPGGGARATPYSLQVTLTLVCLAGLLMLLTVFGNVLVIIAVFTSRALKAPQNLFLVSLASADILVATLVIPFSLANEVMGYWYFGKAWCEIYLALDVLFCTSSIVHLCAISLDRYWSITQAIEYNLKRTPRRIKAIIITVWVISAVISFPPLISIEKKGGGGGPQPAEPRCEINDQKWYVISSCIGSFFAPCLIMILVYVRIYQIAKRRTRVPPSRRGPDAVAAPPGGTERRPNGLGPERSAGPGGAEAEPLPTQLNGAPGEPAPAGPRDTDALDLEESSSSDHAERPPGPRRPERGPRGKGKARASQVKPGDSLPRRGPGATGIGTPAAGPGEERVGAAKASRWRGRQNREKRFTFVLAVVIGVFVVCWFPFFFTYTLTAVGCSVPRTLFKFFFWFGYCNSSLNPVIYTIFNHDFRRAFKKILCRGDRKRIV

[5] = target: T2, 5-hydroxytryptamine receptor 2B; type: functional, cell-based; remark: listed apart in the source
Adenosine receptor A3 = target: T4, Adenosine receptor A3 (Homo sapiens, UniProt P0DMS8)
T4 sequence (P0DMS8 whole entry): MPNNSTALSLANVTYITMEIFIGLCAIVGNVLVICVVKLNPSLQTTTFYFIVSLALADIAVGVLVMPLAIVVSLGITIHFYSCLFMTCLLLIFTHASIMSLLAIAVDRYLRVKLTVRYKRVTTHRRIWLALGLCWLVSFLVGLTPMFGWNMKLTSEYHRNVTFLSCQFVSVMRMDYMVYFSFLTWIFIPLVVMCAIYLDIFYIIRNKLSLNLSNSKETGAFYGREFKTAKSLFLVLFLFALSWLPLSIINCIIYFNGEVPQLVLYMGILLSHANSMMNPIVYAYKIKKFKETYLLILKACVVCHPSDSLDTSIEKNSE

Cannabinoid receptor 1 = Cannabinoid receptor 1 (Homo sapiens, UniProt P21554); type: functional, cell-based
[6] = target: Sodium-dependent dopamine transporter (Homo sapiens, UniProt Q01959)
[7] = target: T5, Gastrin/cholecystokinin type B receptor (Homo sapiens, UniProt P32239)
T5 sequence (P32239 whole entry): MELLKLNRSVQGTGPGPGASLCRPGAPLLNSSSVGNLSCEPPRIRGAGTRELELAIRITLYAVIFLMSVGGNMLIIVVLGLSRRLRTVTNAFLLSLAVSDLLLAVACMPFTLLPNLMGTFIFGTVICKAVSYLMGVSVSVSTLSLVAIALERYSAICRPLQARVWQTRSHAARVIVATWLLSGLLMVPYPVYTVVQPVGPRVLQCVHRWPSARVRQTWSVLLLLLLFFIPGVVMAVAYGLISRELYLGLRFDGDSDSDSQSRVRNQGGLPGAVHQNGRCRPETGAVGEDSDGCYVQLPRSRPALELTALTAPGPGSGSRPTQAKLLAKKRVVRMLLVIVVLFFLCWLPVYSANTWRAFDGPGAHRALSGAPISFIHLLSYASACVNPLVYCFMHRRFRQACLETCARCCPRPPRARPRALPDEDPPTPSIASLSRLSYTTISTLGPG

[8] = target: T6, Alpha-2C adrenergic receptor (Homo sapiens, UniProt P18825); type: functional
T6 sequence (P18825 whole entry): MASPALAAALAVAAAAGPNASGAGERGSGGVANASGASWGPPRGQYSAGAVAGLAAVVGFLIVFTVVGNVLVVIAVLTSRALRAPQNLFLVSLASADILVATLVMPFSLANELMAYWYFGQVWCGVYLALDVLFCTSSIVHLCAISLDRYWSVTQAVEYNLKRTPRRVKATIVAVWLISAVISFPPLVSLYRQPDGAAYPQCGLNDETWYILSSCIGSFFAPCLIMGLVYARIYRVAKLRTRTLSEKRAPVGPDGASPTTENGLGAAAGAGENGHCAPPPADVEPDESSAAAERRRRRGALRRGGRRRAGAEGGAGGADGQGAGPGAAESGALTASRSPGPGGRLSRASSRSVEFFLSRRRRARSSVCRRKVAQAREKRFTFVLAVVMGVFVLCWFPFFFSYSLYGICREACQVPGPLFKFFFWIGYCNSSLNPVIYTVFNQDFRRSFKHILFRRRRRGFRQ
Note: assay procedure not described here.

Chain of Sodium-dependent dopamine transporter (Q01959 whole entry): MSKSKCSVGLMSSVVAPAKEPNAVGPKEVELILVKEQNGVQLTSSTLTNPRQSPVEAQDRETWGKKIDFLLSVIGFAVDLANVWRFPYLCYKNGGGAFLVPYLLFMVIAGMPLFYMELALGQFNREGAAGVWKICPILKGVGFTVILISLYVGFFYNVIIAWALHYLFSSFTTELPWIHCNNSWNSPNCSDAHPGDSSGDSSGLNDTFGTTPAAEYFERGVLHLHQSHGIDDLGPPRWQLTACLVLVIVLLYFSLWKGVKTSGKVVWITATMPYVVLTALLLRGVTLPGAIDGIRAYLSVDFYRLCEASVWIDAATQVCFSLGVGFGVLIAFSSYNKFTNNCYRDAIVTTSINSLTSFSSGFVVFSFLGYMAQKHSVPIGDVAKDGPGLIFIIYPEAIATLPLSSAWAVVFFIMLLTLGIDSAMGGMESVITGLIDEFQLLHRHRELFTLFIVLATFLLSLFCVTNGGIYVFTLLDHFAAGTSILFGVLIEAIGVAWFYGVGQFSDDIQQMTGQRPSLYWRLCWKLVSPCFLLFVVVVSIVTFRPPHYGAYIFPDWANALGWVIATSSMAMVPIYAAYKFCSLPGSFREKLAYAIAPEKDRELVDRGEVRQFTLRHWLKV
Chain of Gamma-aminobutyric acid receptor subunit alpha-1 (P62813 whole entry): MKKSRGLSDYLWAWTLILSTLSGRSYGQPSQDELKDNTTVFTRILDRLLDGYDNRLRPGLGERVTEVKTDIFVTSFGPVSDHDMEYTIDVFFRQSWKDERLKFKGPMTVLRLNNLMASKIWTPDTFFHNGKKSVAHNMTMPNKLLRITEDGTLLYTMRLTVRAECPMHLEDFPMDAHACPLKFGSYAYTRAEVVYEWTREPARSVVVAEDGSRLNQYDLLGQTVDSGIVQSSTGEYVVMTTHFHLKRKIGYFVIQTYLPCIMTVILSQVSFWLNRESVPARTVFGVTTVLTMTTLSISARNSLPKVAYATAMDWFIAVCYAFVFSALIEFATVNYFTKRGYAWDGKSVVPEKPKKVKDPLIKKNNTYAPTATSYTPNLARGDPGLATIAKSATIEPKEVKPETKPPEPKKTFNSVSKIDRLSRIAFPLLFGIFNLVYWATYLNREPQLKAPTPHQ
Chain of Cannabinoid receptor 1 (P21554 whole entry): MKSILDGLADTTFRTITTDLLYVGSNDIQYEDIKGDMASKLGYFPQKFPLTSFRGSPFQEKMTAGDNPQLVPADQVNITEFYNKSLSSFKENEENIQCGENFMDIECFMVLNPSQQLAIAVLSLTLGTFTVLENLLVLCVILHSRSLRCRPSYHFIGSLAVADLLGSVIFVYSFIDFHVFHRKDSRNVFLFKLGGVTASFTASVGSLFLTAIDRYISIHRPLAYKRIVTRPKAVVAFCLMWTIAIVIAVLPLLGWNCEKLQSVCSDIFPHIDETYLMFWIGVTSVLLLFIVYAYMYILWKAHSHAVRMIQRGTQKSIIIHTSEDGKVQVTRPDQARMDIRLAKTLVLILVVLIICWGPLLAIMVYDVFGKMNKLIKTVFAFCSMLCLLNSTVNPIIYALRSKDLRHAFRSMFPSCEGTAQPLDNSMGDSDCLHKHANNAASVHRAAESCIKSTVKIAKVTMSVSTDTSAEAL
T2 sequence (P41595 whole entry): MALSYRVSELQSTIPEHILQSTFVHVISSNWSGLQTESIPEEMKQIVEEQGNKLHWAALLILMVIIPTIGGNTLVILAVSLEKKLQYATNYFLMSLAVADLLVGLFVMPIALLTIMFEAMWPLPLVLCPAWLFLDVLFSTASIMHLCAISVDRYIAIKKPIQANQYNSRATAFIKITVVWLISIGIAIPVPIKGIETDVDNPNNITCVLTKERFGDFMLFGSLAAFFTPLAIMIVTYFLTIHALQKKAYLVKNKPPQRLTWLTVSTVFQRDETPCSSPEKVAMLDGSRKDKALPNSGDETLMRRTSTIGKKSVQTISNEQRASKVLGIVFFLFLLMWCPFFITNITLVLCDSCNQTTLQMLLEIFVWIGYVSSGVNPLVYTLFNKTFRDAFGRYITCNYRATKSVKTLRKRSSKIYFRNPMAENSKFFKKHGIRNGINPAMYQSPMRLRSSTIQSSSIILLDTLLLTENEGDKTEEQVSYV

Structure (SMILES)	AC50 [1]	AC50 [2]	AC50 [3]	AC50 [4]	AC50 [5]	AC50 (Adenosine receptor A3)	AC50 (Cannabinoid receptor 1)	AC50 [6]	AC50 [7]	AC50 [8]
CCN(CC)CCOC(=O)c1ccc(N)cc1 [PROCAINE]	> 30 µM	> 10 µM	> 10 µM	> 10 µM	> 10 µM	> 30 µM	> 30 µM	> 30 µM	> 30 µM	> 10 µM
C1COC(NC(C2CC2)C2CC2)=N1 [RILMENIDINE]	> 30 µM	> 10 µM	> 10 µM	2.6 µM	> 10 µM	> 30 µM	> 30 µM	> 30 µM	> 30 µM	6.8 µM
CN1CCc2cccc3c2[C@H]1Cc1ccc(O)c(O)c1-3 [APOMORPHINE]	> 30 µM	> 10 µM	> 10 µM	3.8 µM	4.7 µM	0.67 µM	> 30 µM	> 30 µM	23.4 µM	3.2 µM
C[C@H]1C[C@@H]2[C@H]([C@@H](O)C[C@@]3(C)[C@H]2CC[C@]3(O)C(=O)COC(=O)CCC(=O)O)[C@@]2(C)C=CC(=O)C=C12 [METHYLPREDNISOLONE HEMISUCCINATE]	> 30 µM	> 30 µM	> 30 µM	> 30 µM	> 30 µM	> 30 µM	> 30 µM	> 30 µM	> 30 µM	> 30 µM
Cc1cc(-c2ccccc2)nnc1NCCN1CCOCC1 [MINAPRINE]	> 30 µM	> 10 µM	> 10 µM	> 10 µM	5.4 µM	> 30 µM	> 30 µM	> 10 µM	> 30 µM	> 10 µM
CN(C)C(=O)OC1N=C(c2ccccc2)c2cc(Cl)ccc2N(C)C1=O (stereo not given) [CAMAZEPAM]	> 30 µM	> 10 µM	> 10 µM	> 10 µM	18 µM	> 30 µM	> 30 µM	> 10 µM	> 30 µM	> 10 µM
CN1CC(=O)N2[C@H](c3ccc4c(c3)OCO4)c3[nH]c4ccccc4c3C[C@@H]2C1=O	> 30 µM	> 10 µM	> 10 µM	> 10 µM	> 10 µM	> 30 µM	> 30 µM	> 30 µM	> 30 µM	> 10 µM
C[C@]12CCC(=O)C=C1CC[C@@H]1[C@@H]2CC[C@@]2(C)[C@H]1CC[C@]2(C)O [METHYLTESTOSTERONE]	> 30 µM	> 30 µM	> 30 µM	> 30 µM	22 µM	> 30 µM	> 30 µM	> 30 µM	> 30 µM	> 30 µM
CCCCC(C)(O)C/C=C/[C@H]1[C@H](O)CC(=O)[C@@H]1CCCCCCC(=O)OC (stereo not given in full) [MISOPROSTOL]	> 30 µM	> 30 µM	> 30 µM	> 30 µM	> 30 µM	> 30 µM	> 30 µM	> 30 µM	> 30 µM	> 30 µM
